Experiments:
Wistar rats [1] = experiment: Elevated plus maze test on rats; format: in vivo, rat; settings: 32 mg/kg ip, in 2% lecithin, mean ± SD, n 4
mice = experiment: Single dose toxicity in mice; format: in vivo
Description: One week alive rate was 100%. The possible durable dosage was 2.4 g/kg by P.O. and two week alive rate was 100% at this dosage.

Kunming mice = experiment: Forced swimming test on mice (anti-depression activity); format: in vivo, mouse; settings: for time of immobile phase (sec/4 min): mean ± SD
Description: The experiment used Kunming mice of China, male, 18-21 g of body weight. […]
The water in experiment vessel was 12 cm in depth, 12.5 cm in diameter and kept at 26° C. Each mouse was put in the water and forced to swim for 6 min in which total immobile time in the last 4 min was recorded, and the significance between experiment group and control group was tested by T value (Table 5).

Wistar rats [2] = experiment: Elevated plus maze test on rats; format: in vivo, rat; settings: for total time of staying on the opened arm (sec. in 5 min.): in 2% lecithin, n 12
Description: The elevated plus-maze test has been used by Pellow, S. And File, SE. for anti-anxiety model in rats. It is one of the most widely used models for anxiolytics. The elevated plus maze has two cross arms, one is an opened arm (50*10 cm, length, width), another is a closed arm (50×10×40 cm, length, width, height) and the maze is 50 cm above the floor during experiment. The rat for experiment is put on the opening at the cross point (10×10) of the two arms, and may freely choose to enter either opened or closed arm.
Wistar rats of 160±20 g body weight were used, and divided randomly into 8 groups, 12 in each group. Handling adaptability training was carried out one week before the experiment. In the experiment, AF-5 in 2% lecithin of the doses listed in Table 1 was given to rats which were fasted for 12 hours before experiment. After administration, the rat was put on the center opening of the elevated plus headed to opened arm, and times of entering the opened arm, total time of staying on the opened arm, and times of shuttling inside the closed arm were recorded.

Wistar rats [3] = experiment: Social interaction test on rats; format: in vivo, rat; settings: mean ± SD; for total time of interaction, 0-9 (minutes): high illuminance unfamiliar conditions (HU); for interaction time (sec. in 9 min): 2 mg/kg ip, HU
Description: The rats (Wistar, 160±20 g) for experiment were individually housed in chambers (55×55×40 cm), and handling adaptability and injection training were carried out twice a day 2 weeks before experiment. One day before experiment, the rats were weighed, labeled and grouped at random in pairs but still separated-until experiment. In experiment, 8 pairs of rats were given AF-5 in 2% lecithin (2% lecithin as control), and the total time of interaction was recorded including smelling, licking, leaning against, grabbing, chasing, biting, following, kicking, hitting etc. The experiment conditions were high illuminance with unfamiliar conditions (HU), low illuminance with unfamiliar conditions, high illuminance with familiar conditions and low illuminance with familiar conditions T-test was used to determine the significance between the test group and control group (Table 3, 4).

[4] = 2 mg/kg ip, time 5 minutes, mean ± SE
[5] = 2 mg/kg ip, time 15 minutes, mean ± SE
[6] = 2 mg/kg ip, time 30 minutes, mean ± SE
[7] = 2 mg/kg ip, time 60 minutes, mean ± SE
[8] = 2 mg/kg ip, time 90 minutes, mean ± SE

SMILES: CCCCC1=CCC[C@@]2(C)CC[C@@H]3C[C@]12OC3(C)C [AF-5, (1R,6S,9R)6,10,10-Trimethyl-2-butyl-11-oxatricyclo[7.2.1.0^1,6]dodec-2-ene]
- total time of staying on the opened arm (sec. in 5 min.) (Wistar rats [1]): 9.6 sec. in 5 min.
- observed reactions after single dose (mice; intravenous injection 500 mg, mice): effect of calming, lying down, decreasing alarm reaction and without other abnormal reactions
- toxicity in single dose toxicity test (in words) (mice; mice): low toxicity and high safety coefficient
- possible durable dosage (mice; mouse, in vivo, po, 2 week): 2.4 g/kg
- time of immobile phase (sec/4 min) (Kunming mice; P.O. three times a day (24, 5, 0.5 hours before experiment), 0.5 mg/kg): 90 ± 25 sec/4 min
- time of immobile phase (sec/4 min) (Kunming mice; P.O. three times a day (24, 5, 0.5 hours before experiment), 1.5 mg/kg): 60 ± 30 sec/4 min
- time of immobile phase (sec/4 min) (Kunming mice; P.O. three times a day (24, 5, 0.5 hours before experiment), 5.0 mg/kg): 83 ± 35 sec/4 min
- time of immobile phase (sec/4 min) (Kunming mice; P.O. three times a day (24, 5, 0.5 hours before experiment), 15.0 mg/kg): 74 ± 41 sec/4 min
- time of immobile phase (sec/4 min) (Kunming mice; P.O., s.i.d. × 21 days, 5.0 mg/kg): 84 ± 41 sec/4 min
- time of immobile phase (sec/4 min) (Kunming mice; P.O., s.i.d. × 21 days, 7.5 mg/kg): 69 ± 45 sec/4 min
- time of immobile phase (sec/4 min) (Kunming mice; P.O., s.i.d. × 21 days, 15.0 mg/kg): 92 ± 66 sec/4 min
- time of mobile phase vs. control (in words) (Kunming mice; administration in 21 successive days): prolonged the mobile time significantly
- anti-depression activity in forced swimming test (in words) (Kunming mice; mice): has anti-depression activity
- time of mobile phase vs. control (in words) (Kunming mice; single dosing 1.5, 5, and 15 mg/kg): did not prolong the time of mobile phase
- time of immobile phase (sec/4 min) (Kunming mice; single dosing, P.O., 0.5 hr, 1.5 mg/kg): 93 ± 39 sec/4 min
- time of immobile phase (sec/4 min) (Kunming mice; single dosing, P.O., 0.5 hr, 5.0 mg/kg): 101 ± 52 sec/4 min
- time of immobile phase (sec/4 min) (Kunming mice; single dosing, P.O., 0.5 hr, 15.0 mg/kg): 97 ± 43 sec/4 min
- time of mobile phase vs. control (in words) (Kunming mice; three times a day, 1.5 mg/kg group): showed significance
- time of mobile phase vs. control (in words) (Kunming mice; three times a day, 0.5 and 5 mg/kg groups): did not show significance though prolonged the mobile time
- Times of shuttling (Wistar rats [2]; 0.5 mg/kg ip, 5 min, closed arm, mean ± SD): 2.5
- total time of staying on the opened arm (sec. in 5 min.) (Wistar rats [2]; 0.5 mg/kg ip, 5 min, mean ± SD): 23 sec. in 5 min.
- Times of shuttling (Wistar rats [2]; 1 mg/kg ip, 5 min, closed arm, mean ± SD): 2.8
- total time of staying on the opened arm (sec. in 5 min.) (Wistar rats [2]; 1 mg/kg ip, 5 min, mean ± SD): 25 + sec. in 5 min.
- Times of shuttling (Wistar rats [2]; 2 mg/kg ip, 5 min, closed arm, mean ± SD): 2.8
- total time of staying on the opened arm (sec. in 5 min.) (Wistar rats [2]; 2 mg/kg ip, 5 min, mean ± SD): 36 sec. in 5 min.
- Time in opened arm (Wistar rats [2]; [4]): 4.4
- Times of shuttling (Wistar rats [2]; [4]): 3.0
- Time in opened arm (Wistar rats [2]; [5]): 6.1
- Times of shuttling (Wistar rats [2]; [5]): 4.1
- Time in opened arm (Wistar rats [2]; [6]): 7.9
- Times of shuttling (Wistar rats [2]; [6]): 6.6
- Time in opened arm (Wistar rats [2]; [7]): 20.8
- Times of shuttling (Wistar rats [2]; [7]): 5.6
- Time in opened arm (Wistar rats [2]; [8]): 1.27
- Times of shuttling (Wistar rats [2]; [8]): 3.7
- Times of shuttling (Wistar rats [2]; 4 mg/kg ip, 5 min, closed arm, mean ± SD): 2.3
- total time of staying on the opened arm (sec. in 5 min.) (Wistar rats [2]; 4 mg/kg ip, 5 min, mean ± SD): 30 sec. in 5 min.
- Times of shuttling (Wistar rats [2]; 8 mg/kg ip, 5 min, closed arm, mean ± SD): 1.3
- total time of staying on the opened arm (sec. in 5 min.) (Wistar rats [2]; 8 mg/kg ip, 5 min, mean ± SD): 14 sec. in 5 min.
- Times of shuttling (Wistar rats [2]; 16 mg/kg ip, 5 min, closed arm, mean ± SD): 4.2
- total time of staying on the opened arm (sec. in 5 min.) (Wistar rats [2]; 16 mg/kg ip, 5 min, mean ± SD): 9.8 sec. in 5 min.
- Times of shuttling (Wistar rats [2]; 32 mg/kg ip, 5 min, closed arm, mean ± SD): 3.0
- anti-anxiety activity in elevated plus maze test (in words) (Wistar rats [2]; rats, dose-effect): antianxiety activity with a wide dosage range
- total time of interaction, 0-9 (minutes) (Wistar rats [3]; 0.125 mg/kg): 1.93 min
- total time of interaction, 0-9 (minutes) (Wistar rats [3]; 0.25 mg/kg): 2.28 min
- total time of interaction, 0-9 (minutes) (Wistar rats [3]; 0.5 mg/kg): 3.65 min
- total time of interaction, 0-9 (minutes) (Wistar rats [3]; 1.0 mg/kg): 4.02 min
- interaction time (sec. in 9 min) (Wistar rats [3]; time 5 minutes): 98 sec. in 9 min
- interaction time (sec. in 9 min) (Wistar rats [3]; time 15 minutes): 143 sec. in 9 min
- interaction time (sec. in 9 min) (Wistar rats [3]; time 30 minutes): 103 sec. in 9 min
- interaction time (sec. in 9 min) (Wistar rats [3]; time 60 minutes): 166 sec. in 9 min
- interaction time (sec. in 9 min) (Wistar rats [3]; time 90 minutes): 112 sec. in 9 min
- total time of interaction, 0-9 (minutes) (Wistar rats [3]; 2.0 mg/kg): 3.25 min
- total time of interaction, 0-9 (minutes) (Wistar rats [3]; 4.0 mg/kg): 3.23 min

SMILES: CC(C)CCC1=CCC[C@@]2(C)CC[C@@H]3C[C@]12OC3(C)C [Example 5, (1R,6S,9R)6,10,10-Trimethyl-2-isopentyl-11-oxatricyclo[7.2.1.0^1,6]dodec-2-ene]
- melting point: 38 to 39 °C

SMILES: CC1(C)O[C@]23C[C@H]1CC[C@]2(C)CCC=C3Cc1ccccc1 [Example 7, (1R,6S,9R)6,10,10-Trimethyl-2-benzyl-11-oxatricyclo[7.2.1.0^1,6]dodec-2-ene]
- melting point: 49 to 50 °C

SMILES: CC1(C)O[C@]23C[C@H]1CC[C@]2(C)CCC=C3Cc1ccc(F)cc1 [Example 8, (1R,6S,9R)6,10,10-Trimethyl-2-(4-flurobenzyl)-11-oxatricyclo[7.2.1.0^1,6]dodec-2-ene]
- melting point: 131 to 133 °C

SMILES: CC1(C)O[C@]23C[C@H]1CC[C@]2(C)CCC=C3Cc1ccc(Cl)cc1 [Example 10, (1R,6S,9R)6,10,10-Trimethyl-2-(4-chlorobenzyl)-11-oxatricyclo[7.2.1.0^1,6]dodec-2-ene]
- melting point: 87 to 88 °C

SMILES: CC1(C)O[C@]23C[C@H]1CC[C@]2(C)CCC=C3CCO [Example 11, (1R,6S,9R)6,10,10-Trimethyl-2-(2-hydroxyethyl)-11-oxatricyclo[7.2.1.0^1,6]dodec-2-ene]
- melting point: 34 to 36 °C

SMILES: CCCC[C@]1(O)CCC[C@@]2(C)CC[C@@H]3C[C@@]21OC3(C)C [Example 16, (1R,2S,6S,9R)6,10,10-Trimethyl-2-butyl-2-hydroxy-11-oxatricyclo[7.2.1.0^1,6]dodecane]
- melting point: 70 to 72 °C

SMILES: CCCC[C@@]1(O)CCC[C@@]2(C)CC[C@@H]3C[C@@]21OC3(C)C [Example 21, (1R,2R,6S,9R)6,10,10-Trimethyl-2-butyl-2-hydroxy-11-oxatricyclo[7.2.1.0^1,6]dodecane]
- melting point: 90 to 92 °C

SMILES: CCCC[C@H]1[C@@H](O)CC[C@@]2(C)CC[C@@H]3C[C@]12OC3(C)C [Example 22, (1S,2S,3S,6R,9R)6,10,10-Trimethyl-2-butyl-3-hydroxy-11-oxatricyclo[7.2.1.0^1,6]dodecane]
- melting point: 47 to 48 °C

SMILES: CCCC[C@H]1C(=O)CC[C@@]2(C)CC[C@@H]3C[C@]12OC3(C)C [Example 23, (1S,2R,6R,9R)6,10,10-Trimethyl-2-butyl-11-oxatricyclo[7.2.1.0^1,6]dodecan-3-one]
- melting point: 64 to 66 °C

SMILES: CC1(C)O[C@]23C[C@H]1CC[C@]2(C)CC[C@](C)(O)C3 [Example 24, (1S,3S,6R,9R)3,6,10,10-Tetramethyl-3-hydoxy-11-oxatricyclo[7.2.1.0^1,6]dodecane]
- melting point: 68 to 70 °C

SMILES: CC(=O)CCC1=CCC[C@@]2(C)CC[C@@H]3C[C@]12OC3(C)C [Example 29, (1R,6S,9R)6,10,10-Trimethyl-2-(3-oxobutyl)-11-oxatricyclo[7.2.1.0^1,6]dodec-2-ene]
- melting point: 59 to 62 °C

SMILES: CC1=C[C@@]23C[C@@H](CC[C@]2(C)CC1)C(C)(C)O3 [Example 32, (1S,6R,9R)3,6,10,10-Tetramethyl-11-oxatricyclo[7.2.1.0^1,6]dodec-2-ene]
- melting point: 38 to 39 °C
